Data from ChEMBL document CHEMBL1201862, “PubChem BioAssay data set” (2004).
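Results reflect a 48-hour exposure of cells in 96-well plates to compound at five concentrations. Abbreviation: GI50, concentration required for 50% inhibition of growth.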 Activity calls are given as the source filed them. No stated cut-off is given here; in the data, active = GI50 up to about 1.1 µM and inactive = higher.

Experiments:
Experiment in all cases: NCI-60 cell line screen, 48 h
CAKI-1 = test system: CAKI-1
NCI-H23 = test system: NCI-H23
EKVX = test system: EKVX
OVCAR-8 = test system: OVCAR-8
SK-MEL-28 = test system: SK-MEL-28
HOP-62 = test system: HOP-62
RPMI-8226 = test system: RPMI-8226
IGROV-1 = test system: IGROV-1
HL-60 = test system: HL-60
NCI-H460 = test system: NCI-H460
HT-29 = test system: HT-29
SF-268 = test system: SF-268
TK-10 = test system: TK-10
A498 = test system: A498
SK-MEL-5 = test system: SK-MEL-5
SN12C = test system: SN12C

Measured: GI50

CCCCOC(=O)C1C(c2ccc(Cl)cc2)NC(c2ccc(Cl)cc2)C(C(=O)OCCCC)S1(=O)=O (centres undefined)
inactive: CAKI-1 > 100 µM | NCI-H23 > 100 µM | EKVX > 100 µM | OVCAR-8 > 100 µM | SK-MEL-28 > 100 µM | HOP-62 > 100 µM | RPMI-8226 > 100 µM | IGROV-1 > 100 µM | HL-60 8.83 µM | NCI-H460 > 100 µM | HT-29 > 100 µM | SF-268 > 100 µM | TK-10 > 100 µM | A498 > 100 µM | SK-MEL-5 > 100 µM | SN12C > 100 µM

COc1cc2oc(-c3ccccc3)cc(=O)c2c(O)c1C
inactive: CAKI-1 > 100 µM | NCI-H23 > 100 µM | EKVX > 100 µM | OVCAR-8 > 100 µM | SK-MEL-28 > 100 µM | HOP-62 > 100 µM | RPMI-8226 > 100 µM | IGROV-1 > 100 µM | HL-60 > 100 µM | NCI-H460 > 100 µM | HT-29 > 100 µM | SF-268 > 100 µM | TK-10 > 100 µM | A498 > 100 µM | SK-MEL-5 > 100 µM | SN12C > 100 µM

COc1c(O)ccc(/C=N/NC(=S)NCOCCOC(C)=O)c1OC
inactive: NCI-H23 > 100 µM | EKVX > 100 µM | OVCAR-8 > 100 µM | SK-MEL-28 > 100 µM | HOP-62 > 100 µM | IGROV-1 > 100 µM | HL-60 > 100 µM | NCI-H460 > 100 µM | HT-29 > 100 µM | SF-268 > 100 µM | TK-10 > 100 µM | A498 > 100 µM | SK-MEL-5 > 100 µM | SN12C > 100 µM

c1ccc2cc(C3NCCc4nc[nH]c43)ccc2c1 (centres undefined)
inactive: CAKI-1 60.3 µM | NCI-H23 > 100 µM | OVCAR-8 89.7 µM | SK-MEL-28 > 100 µM | HOP-62 > 100 µM | RPMI-8226 45.5 µM | IGROV-1 > 100 µM | NCI-H460 52 µM | HT-29 41.7 µM | SF-268 > 100 µM | TK-10 28 µM | A498 25.9 µM | SK-MEL-5 19.1 µM | SN12C 97.5 µM

N#CCCn1[nH]c(=O)c(Cl)c(Cl)c1=O
inactive: NCI-H23 15.2 µM | EKVX 3.87 µM | OVCAR-8 15.7 µM | SK-MEL-28 15.8 µM | HOP-62 > 10 µM | RPMI-8226 11.5 µM | IGROV-1 17.1 µM | HL-60 11.3 µM | NCI-H460 13.3 µM | HT-29 11.8 µM | SF-268 16.3 µM | TK-10 35.8 µM | A498 20.2 µM | SN12C 17.4 µM

NNC(=O)N/N=C1\C(=O)N(c2ccc(Cl)c(Cl)c2)C(=O)C(=O)C1c1nc2ccccc2s1 (centres undefined)
inactive: CAKI-1 > 100 µM | NCI-H23 > 100 µM | EKVX > 100 µM | OVCAR-8 > 100 µM | SK-MEL-28 > 100 µM | HOP-62 > 100 µM | IGROV-1 > 100 µM | HL-60 > 100 µM | NCI-H460 > 100 µM | HT-29 > 100 µM | SF-268 > 100 µM | TK-10 > 100 µM | A498 > 100 µM | SK-MEL-5 > 100 µM | SN12C > 100 µM

COc1ccc(N2C(=O)C3CC(c4ccc(C)cc4)c4c([nH]c5ccccc45)C3C2=O)cc1 (centres undefined)
inactive: CAKI-1 > 96.2 µM | NCI-H23 > 45.8 µM | EKVX > 63.5 µM | OVCAR-8 5.43 µM | SK-MEL-28 > 49.9 µM | HOP-62 18.1 µM | IGROV-1 38 µM | HL-60 14.5 µM | NCI-H460 4.9 µM | HT-29 16.3 µM | SF-268 19.5 µM | TK-10 36.5 µM | A498 30.2 µM | SK-MEL-5 63.1 µM | SN12C 8.87 µM

CN1NC2(CCCCC2)ON=C1c1ccccc1
inactive: CAKI-1 > 100 µM | NCI-H23 > 100 µM | EKVX > 100 µM | OVCAR-8 > 100 µM | SK-MEL-28 > 100 µM | HOP-62 > 100 µM | IGROV-1 > 100 µM | HL-60 > 100 µM | NCI-H460 > 100 µM | HT-29 > 100 µM | SF-268 > 100 µM | TK-10 > 100 µM | A498 > 100 µM | SK-MEL-5 > 100 µM | SN12C > 100 µM

CSc1nnc(C(C#N)C#N)nn1
inactive: CAKI-1 > 100 µM | NCI-H23 > 100 µM | EKVX > 100 µM | OVCAR-8 > 100 µM | HOP-62 > 100 µM | RPMI-8226 > 100 µM | IGROV-1 > 100 µM | HL-60 > 100 µM | NCI-H460 > 100 µM | HT-29 > 100 µM | SF-268 > 100 µM | TK-10 > 100 µM | A498 > 100 µM | SK-MEL-5 > 100 µM | SN12C > 100 µM

CCc1ccccc1NC(=O)C1=C(C)NC(C)=C(C(=O)Nc2c(CC)cccc2CC)C1c1ccc2c(c1)OCO2 (centres undefined)
inactive: CAKI-1 19.5 µM | NCI-H23 16.7 µM | EKVX 24.2 µM | OVCAR-8 25.8 µM | SK-MEL-28 18.1 µM | HOP-62 19.7 µM | RPMI-8226 15.8 µM | IGROV-1 25.4 µM | HL-60 23 µM | NCI-H460 16.6 µM | HT-29 18 µM | SF-268 20.3 µM | TK-10 22.3 µM | SK-MEL-5 14.6 µM | SN12C 26 µM
